For 10 compounds, IC50 results are on record in patent publication US10287301B2 (Achillion Pharmaceuticals, Inc., priority 2015, dated 2019).

In the assay the target is Human Factor D (Homo sapiens (Human), UniProt P00746). Put plainly: Human Factor D Assay. Format: biochemical. In outline:
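Thioester cleavage assay: human Factor D (serum-derived, 80 nM final), substrate Z-L-Lys-SBzl with DTNB, both 100 μM final, after 5 min compound preincubation at room temperature.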

Setting [1] is: Table 3, Human Factor D 80 nM, substrate Z-L-Lys-SBzl, read-out: IC50 (Stars).
The mark [2] stands for this setting: Human Factor D assay of Example 8, Table 2, read-out: IC50.
[3] abbreviates: Human Factor D, Table 3, read-out: IC50.

Molecules are shown by their SMILES. Like-named read-outs stand apart in the source and are kept apart here.

Chain of Human Factor D (P00746 26-253): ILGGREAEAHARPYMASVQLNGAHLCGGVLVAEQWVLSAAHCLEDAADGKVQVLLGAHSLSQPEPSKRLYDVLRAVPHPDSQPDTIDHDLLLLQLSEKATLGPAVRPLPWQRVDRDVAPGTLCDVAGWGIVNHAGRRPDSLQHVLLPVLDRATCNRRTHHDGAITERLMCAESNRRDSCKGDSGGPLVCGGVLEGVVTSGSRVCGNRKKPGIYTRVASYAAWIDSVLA

In general, IC50 refers to the concentration that gives 50% inhibition. With `Cc1cccc(NC(=O)[C@@H]2[C@H]3CC[C@H](C3)N2C(=O)Cn2cc(C(N)=O)c3cc(-c4ccc5c(c4)CC5)ccc32)n1` [Compound 536, 5-(1,2-Dihydrocyclobutabenzen-4-yl)-1-(2-((1R,3S,4S)-3-(6-methylpyridin-2-ylcarbamoyl)-2-azabicyclo[2.2.1]heptan-2-yl)-2-oxoethyl)-1H-indole-3-carboxamide], under setting [1], the half-maximal inhibitory concentration (IC50) is more than 10000 nM.

`CC(=O)c1nn(CC(=O)N2C[C@H](F)C[C@H]2C(=O)Nc2ccn(CC(F)(F)F)n2)c2ccc(-c3cnc(C)nc3)cc12` [Compound 357, (2S,4R)-1-(2-(3-Acetyl-5-(2-methylpyrimidin-5-yl)-1H-indazol-1-yl)acetyl)-4-fluoro-N-(1-(2,2,2-trifluoroethyl)-1H-pyrazol-3-yl)pyrrolidine-2-carboxamide]: the IC50 under setting [1] is less than 1000 nM.

Regarding `CC(=O)c1nn(CC(=O)N2CSC[C@H]2C(=O)Nc2cccc(Br)n2)c2ccc(-c3cnc(C)nc3)cc12` [Compound 312, (R)-3-(2-(3-acetyl-5-(2-methylpyrimidin-5-yl)-1H-indazol-1-yl)acetyl)-N-(6-bromopyridin-2-yl)thiazolidine-4-carboxamide], the half-inhibitory concentration (IC50) under setting [2] was less than 1000 nM.

For `Cc1ccnn1-c1ccccc1NC(=O)[C@@H]1C[C@@H](F)CN1C(=O)Cn1nc(C(N)=O)c2cc(-c3ccnnc3)ccc21` [Compound 71, 1-(2-((2S,4R)-4-fluoro-2-(2-(5-methyl-1H-pyrazol-1-yl)phenylcarbamoyl)pyrrolidin-1-yl)-2-oxoethyl)-5-(pyridazin-4-yl)-1H-indazole-3-carboxamide], for the setting “Human Factor D 80 nM, substrate Z-L-Lys-SBzl, read-out: IC50”, the IC50 is more than 10000 nM.

On to `CC(=O)c1nn(CC(=O)N2C[C@H]3C[C@H]3[C@H]2C(=O)Nc2nc(Br)ccc2C2CC2)c2ccc(-c3cnc(C)nc3)cc12` [Compound 637, (1R,2S,5S)-3-(2-(3-Acetyl-5-(2-methylpyrimidin-5-yl)-1H-indazol-1-yl)acetyl)-N-(6-bromo-3-cyclopropylpyridin-2-yl)-3-azabicyclo[3.1.0]hexane-2-carboxamide], for which the IC50 under setting [3] is less than 1000 nM.

For the compound `CC(=O)c1cn(CC(=O)N2C[C@H](F)C[C@H]2C(=O)Nc2cccc(Br)n2)c2ccc(-c3cnc(N)nc3)cc12` [Compound 219, (2S,4R)-1-(2-(3-acetyl-5-(2-aminopyrimidin-5-yl)-1H-indol-1-yl)acetyl)-N-(6-bromopyridin-2-yl)-4-fluoropyrrolidine-2-carboxamide], under setting [2], the IC50 is less than 1000 nM.

With `CC(=O)c1cn(CC(=O)N2C[C@H](F)C[C@H]2C(=O)Nc2cc(C)cc(Br)n2)c2ccc(-c3cnc4cc(C)nn4c3)cc12` [Compound 657, (2S,4R)-1-(2-(3-Acetyl-5-(2-methylpyrazolo[1,5-a]pyrimidin-6-yl)-1H-indol-1-yl)acetyl)-N-(6-bromo-4-methylpyridin-2-yl)-4-fluoropyrrolidine-2-carboxamide], the IC50 under setting [3] is less than 1000 nM.

For `CC(=O)c1nn(CC(=O)N2C[C@H](F)C[C@H]2C(=O)Nc2cccc(OC(F)(F)F)c2F)c2ccc(-c3cnc4ccnn4c3)cc12` [Compound 235, (2S,4R)-1-(2-(3-acetyl-5-(pyrazolo[1,5-a]pyrimidin-6-yl)-1H-indazol-1-yl)acetyl)-4-fluoro-N-(2-fluoro-3-(trifluoromethoxy)phenyl)pyrrolidine-2-carboxamide], the IC50 under setting [2] is less than 1000 nM.

Regarding `CC(=O)c1cn(CC(=O)N2C[C@H](F)C[C@H]2C(=O)Nc2cccc(C(F)(F)F)n2)c2ccc(-c3cnc4cc(C)nn4c3)cc12` [Compound 301, (2S,4R)-1-(2-(3-acetyl-5-(2-methylpyrazolo[1,5-a]pyrimidin-6-yl)-1H-indol-1-yl)acetyl)-4-fluoro-N-(6-(trifluoromethyl)pyridin-2-yl)pyrrolidine-2-carboxamide], the IC50 under setting [2] was less than 1000 nM.

For `CC(=O)c1nn(CC(=O)N2C[C@H]3C[C@H]3[C@H]2C(=O)Nc2nc(Br)ccc2C)c2ccc(-c3cnc(C)nc3)cc12` [Compound 488, (1R,2S,5S)-3-(2-(3-Acetyl-5-(2-methylpyrimidin-5-yl)-1H-indazol-1-yl)acetyl)-N-(6-bromo-3-methylpyridin-2-yl)-3-azabicyclo[3.1.0]hexane-2-carboxamide], the half-inhibitory concentration (IC50) under setting [1] is less than 1000 nM.
